Reference: patent publication US11000531B2, “Methods of treating certain depressive disorders and delirium tremens” (MARINUS PHARMACEUTICALS INC., priority 2016, dated 2021)

Experiments:
[1] = system: women suffering from postpartum depression; conditions: women with postpartum depression, cited from earlier work
[2] = human plasma; cited from earlier work
[3] = Ganaxolone solubility in water
[4] = Ganaxolone concentration reached in 30% Captisol solutions (HPLC); type: physicochemical; conditions: dry mixing method, after 90 hours of stirring
Protocol: 500 μl of 10% aqueous Polysorbate 80 solution in a 20 ml scintillation vial were combined with powdered ganaxolone (50 mg). The mixture was stirred to wet the ganaxolone. Solid Captisol (3.2 g), sufficient to form a 30% Captisol solution, was then added to the vial and the vial contents were mixed. Deionized water (8.0 g) was then added and the mixture was vigorously stirred at room temperature overnight to obtain a hazy solution. An aliquot was filtered through 0.2 μm syringe filter and ganaxolone concentration was assayed by HPLC to be 4.28 mg/ml.
Ganaxolone was vigorously stirred in 30% Captisol in the presence of 10% v/v ethanol overnight to obtain a 3.16 mg/ml ganaxolone solution.
Ganaxolone was vigorously stirred in 30% Captisol in the presence of 10% v/v glycerin overnight to obtain a 3.45 mg/ml ganaxolone solution.
Ganaxolone was vigorously stirred in 30% Captisol in the presence of 10% v/v propylene glycol overnight to obtain a 2.53 mg/ml ganaxolone solution.
Powdered ganaxolone (125 mg) was charged into 100 ml beaker. Captisol powder (7.9 g) was then added to the beaker. The mixture was mixed by stirring with a magnetic stir bar for 5 minutes. Deionized water (20.1 g) was weighed into a plastic cup. About half of the water was added into the beaker and the contents were vigorously stirred for 30 minutes to obtain a homogeneous mixture. […]

SMILES | mean HAM-D score lower than placebo-treated subjects ([1]; end of sixty hour intravenous infusion, baseline HAM-D greater than 25) [points] | persistence of effects after infusion ([1]; after intravenous infusion) [days] | half-life [2] | solubility [3] [µg/mL] | ganaxolone concentration after prolonged stirring [4]
CC(=O)[C@H]1CC[C@H]2[C@@H]3CC[C@H]4C[C@H](O)CC[C@]4(C)[C@H]3CC[C@]12C [Allopregnanolone, 3α,5α-tetrahydroprogesterone] | 12 | 30 | about 45 minutes | – | –
CC(=O)[C@H]1CC[C@H]2[C@@H]3CC[C@H]4C[C@](C)(O)CC[C@]4(C)[C@H]3CC[C@]12C [Ganaxolone, 3α-hydroxy, 3β-methyl-5α-pregnan-20-one] | – | – | – | < 1 | remained unchanged
